Measured values: patent US10028961B2, “Therapeutically active compounds and their methods of use” (AGIOS PHARMACEUTICALS, INC., priority 2013, dated 2018)

Legend:
[1] = biological target: IDH1-R132H homodimer enzyme (Homo sapiens (Human), UniProt O75874, R132H); experiment: In vitro assay IDH1-R132H homodimer, NADPH depletion assay with NADPH/NADP preincubation; assay type: biochemical; conditions: 5 μM NADPH and 37.5 μM NADP
How it was run: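 Compounds were added from DMSO at 50× final concentration, and the mutant enzyme was incubated 60 min at room temperature after starting with a substrate mix holding NADPH and 5 mM alpha-ketoglutarate. Residual cofactor, read by fluorescence after excess diaphorase and resazurin, reflects enzyme turnover.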

[2] = biological target: IDH1 wt/IDH1 R132H heterodimer (Homo sapiens (Human), UniProt O75874, R132H); experiment: In vitro assay for IDH1m R132H inhibitors, IDH1 wt/IDH1 R132H heterodimer, NADPH depletion (diaphorase/resazurin); assay type: biochemical; conditions: IDH1 wt/R132H heterodimer, NADPH/NADP, not saturated; read-out: IDH1 wt/R132H NADPH/NADP IC50 not saturated
Chain of IDH1 wt/IDH1 R132H heterodimer (O75874 whole entry R132H): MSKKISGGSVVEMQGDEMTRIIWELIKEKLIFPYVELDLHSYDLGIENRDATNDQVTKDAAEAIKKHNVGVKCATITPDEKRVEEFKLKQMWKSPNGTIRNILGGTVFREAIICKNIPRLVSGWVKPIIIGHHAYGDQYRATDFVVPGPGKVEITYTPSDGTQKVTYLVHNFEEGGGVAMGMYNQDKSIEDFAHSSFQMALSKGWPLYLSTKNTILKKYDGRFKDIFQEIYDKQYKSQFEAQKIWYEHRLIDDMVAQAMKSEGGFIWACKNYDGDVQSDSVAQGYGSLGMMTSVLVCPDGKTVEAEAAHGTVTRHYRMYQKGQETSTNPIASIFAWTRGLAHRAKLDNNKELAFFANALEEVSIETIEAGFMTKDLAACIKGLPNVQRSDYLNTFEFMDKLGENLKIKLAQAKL
Chain of IDH1 wt/IDH1 R132H heterodimer (O75874 whole entry, stated change not applied): as the sequence (O75874 whole entry R132H) above, with H132R counted along it
How it was run: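 Read-out is NADPH left after α-KG reduction to 2-HG, measured via resorufin fluorescence after 5 min diaphorase/resazurin step at 25° C. Enzyme is sf9-expressed IDH1wt-his/IDH1R132H-flag heterodimer, pre-incubated 1 hr at room temperature with compound and cofactor. IC50s from DMSO stocks diluted 1:50.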

HT1080 cells = experiment: Cellular assay for IDH1m R132C inhibitors, 2-HG by LC-MS in HT1080 cells; assay type: cell-based; conditions: Homo sapiens, HT-1080
Procedure: The following describes the experimental procedures that can be used to obtain data on column 5 of Table 4.
Cells (HT1080 or U87MG) are grown in T125 flasks in DMEM containing 10% FBS, 1× penicillin/streptomycin and 500 ug/mL G418 (present in U87MG cells only). They are harvested by trypsin and seeded into 96 well white bottom plates at a density of 5000 cell/well in 100 ul/well in DMEM with 10% FBS. No cells are placed in columns 1 and 12. Cells are incubated overnight at 37° C. in 5% CO2. The next day test compounds are made up at 2× the final concentration and 100 ul are added to each cell well. The final concentration of DMSO is 0.2% and the DMSO control wells are plated in row G. The plates are then placed in the incubator for 48 hours. At 48 hours, 100 ul of media is removed from each well and analyzed by LC-MS for 2-HG concentrations. The cell plate is placed back in the incubator for another 24 hours. At 72 hours post compound addition, 10 mL/plate of Promega Cell Titer Glo reagent is thawed and mixed. The cell plate is removed from the incubator and allowed to equilibrate to room temperature. Then 100 ul of Promega Cell Titer Glo reagent is added to each well of media. The cell plate is then placed on an orbital shaker for 10 minutes and then allowed to sit at room temperature for 20 minutes. The plate is then read for luminescence with an integration time of 500 ms.
HT1080 cells are maintained in RPMI containing 10% FBS, 1× penicillin/streptomycin. […] The next day compounds are prepared in 100% DMSO and then diluted in media for a final concentration of 0.2% DMSO. Media is removed from the cell plates and 200 μL of the compound dilutions are added to each well. […] The cell plates are then allowed to incubate another 24 hours.

[3] = test system: U87MG pLVX-IDH2 R140Q-neo cells; experiment: U87MG pLVX-IDH2 R140Q-neo cell based assay, 2-HG by LC-MS; conditions: Homo sapiens, U-87 MG
IDH2 R140Q = IDH2 R140Q (Homo sapiens (Human), UniProt P48735, R140Q); experiment: In vitro assay for IDH2m R140Q inhibitors, cofactor depletion assay; assay type: biochemical; conditions: IDH2 R140Q enzyme
Chain of IDH2 R140Q (P48735 40-452 R140Q): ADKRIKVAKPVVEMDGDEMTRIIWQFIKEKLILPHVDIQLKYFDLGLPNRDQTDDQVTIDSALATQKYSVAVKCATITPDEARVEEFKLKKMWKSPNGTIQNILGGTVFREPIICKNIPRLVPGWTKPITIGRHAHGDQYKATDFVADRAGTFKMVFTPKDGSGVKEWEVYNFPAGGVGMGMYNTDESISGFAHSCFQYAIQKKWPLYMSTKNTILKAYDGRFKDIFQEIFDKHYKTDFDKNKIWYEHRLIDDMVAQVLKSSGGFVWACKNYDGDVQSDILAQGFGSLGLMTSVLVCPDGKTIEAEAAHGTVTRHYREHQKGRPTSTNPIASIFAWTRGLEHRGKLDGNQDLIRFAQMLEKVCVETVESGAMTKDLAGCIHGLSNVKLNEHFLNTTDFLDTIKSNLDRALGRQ
How it was run: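 Remaining cofactor measured fluorimetrically: diaphorase/resazurin Stop Mix […], halting the reaction. Before that, mutant enzyme and compound sat 1 h at RT, then substrate mix (4 μM NADPH, 1.6 mM α-KG) was added for 16 h at RT.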

[4] = test system: Neurosphere cells (TS603); experiment: Cellular assay for IDH1m R132H inhibitors, 2-HG by LC-MS in neurosphere cells (TS603); assay type: cell-based; conditions: 2-HG in media at 48 hours
How it was run: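 TS603 neurosphere cells in NeuroCult medium were dosed with compound (0.25% DMSO final) at 37 C, 5% CO2. After 48 hours, medium 2-HG was measured by LC-MS. At 72 hours, viability was read by CellTiter-Glo luminescence.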

Chain of IDH1-R132H homodimer enzyme (O75874 whole entry R132H): as the sequence (O75874 whole entry R132H) above

Row | IC50 [1] [nM] | IC50 [2] [nM] | IC50 (HT1080 cells) [nM] | IC50 [3] [nM] | IC50 (IDH2 R140Q) [nM] | IC50 [4] [nM] | Compound
1 | < 50 | < 50 | < 50 | < 50 | < 50 | < 50 | FC1(F)CC[C@H](Nc2nc(N[C@H]3CCC(F)(F)C3)nc(-c3cccc(C(F)(F)F)n3)n2)C1 [Compound 118]
2 | < 50 | < 50 | 50 to 100 | < 50 | < 50 | < 50 | CC(Nc1nc(Nc2cc(F)cc(C#N)c2)nc(-n2ccc(C(F)(F)F)n2)n1)C(F)(F)F (stereo not drawn) [Compound 119]
3 | < 50 | < 50 | 50 to 100 | < 50 | < 50 | < 50 | N#Cc1cc(F)cc(Nc2nc(NC3CC(F)(F)C3)nc(-c3nc(C(F)(F)F)cs3)n2)c1 [Compound 122]
4 | < 50 | < 50 | 100 to 1000 | < 50 | < 50 | < 50 | N#Cc1cc(F)cc(Nc2nc(NC3CCC(F)(F)C3)nc(-c3nc(C(F)(F)F)cs3)n2)c1 (stereo not drawn) [Compound 132]
5 | < 50 | < 50 | 100 to 1000 | < 50 | < 50 | < 50 | N#Cc1cc(F)cc(Nc2nc(NC3CC(F)(F)C3)nc(-n3ccc(C(F)(F)F)n3)n2)c1 [Compound 140]
6 | < 50 | < 50 | < 50 | < 50 | < 50 | < 50 | CC(Nc1nc(NC(C)C(F)(F)F)nc(-n2ccc(C(F)(F)F)n2)n1)C(F)(F)F (stereo not drawn) [Compound 141]
7 | < 50 | < 50 | 50 to 100 | < 50 | < 50 | < 50 | FC1(F)CCC(Nc2nc(NC3CC(F)(F)C3)nc(-c3cccc(C(F)(F)F)n3)n2)CC1 [Compound 143]
8 | < 50 | < 50 | < 50 | < 50 | < 50 | < 50 | FC1(F)CC(Nc2nc(NC3CC(F)(F)C3)nc(-c3cncc(Cl)n3)n2)C1 [Compound 144]
9 | < 50 | < 50 | 100 to 1000 | < 50 | < 50 | < 50 | N#Cc1cc(F)cc(Nc2nc(NC3CC(F)(F)C3)nc(-c3cccc(C(F)(F)F)n3)n2)c1 [Compound 154]
10 | < 50 | < 50 | 50 to 100 | < 50 | < 50 | < 50 | CC(F)(F)c1nc(-c2nc(NC3CCC(F)(F)C3)nc(NC3CCC(F)(F)C3)n2)cs1 (stereo not drawn) [Compound 155]
11 | < 50 | < 50 | < 50 | < 50 | < 50 | < 50 | CC(Nc1nc(NC(C)C(F)(F)F)nc(-c2cncc(Cl)n2)n1)C(F)(F)F (stereo not drawn) [Compound 156]
12 | < 50 | < 50 | < 50 | 50 to 100 | 50 to 100 | < 50 | FC1(F)CCCC1Nc1nc(NC2CCCC2(F)F)nc(-c2cccc(Cl)n2)n1 (stereo not drawn) [Compound 157]
13 | < 50 | < 50 | 100 to 1000 | < 50 | < 50 | < 50 | Fc1cc(F)cc(Nc2nc(NC3CCC(F)(F)C3)nc(-c3nc(C(F)(F)F)cs3)n2)c1 (stereo not drawn) [Compound 159]
14 | 50 to 100 | < 50 | 100 to 1000 | < 50 | < 50 | < 50 | CC(F)(F)c1cc(Nc2nc(NC3CCC(F)(F)C3)nc(-c3cccc(C(F)(F)F)n3)n2)ccn1 (stereo not drawn) [Compound 163]
15 | 50 to 100 | < 50 | 100 to 1000 | < 50 | < 50 | < 50 | Nc1ccc(F)c(-c2nc(Nc3cc(F)cc(F)c3)nc(NC3CCC(F)(F)CC3)n2)n1 [Compound 165]
16 | < 50 | < 50 | < 50 | < 50 | < 50 | < 50 | N#CC1(c2cc(Nc3nc(NC4CC(F)(F)C4)nc(-n4ccc(C(F)(F)F)n4)n3)ccn2)CC1 [Compound 169]
17 | 50 to 100 | < 50 | 100 to 1000 | < 50 | < 50 | < 50 | CC(Nc1nc(Nc2ccnc(C(F)(F)F)c2)nc(-c2cccc(C(F)(F)F)n2)n1)C(F)(F)F (stereo not drawn) [Compound 171]
18 | 50 to 100 | < 50 | 100 to 1000 | < 50 | < 50 | < 50 | N#Cc1cc(F)cc(Nc2nc(NCC3CC3)nc(-c3cccc(C(F)(F)F)n3)n2)c1 [Compound 175]
19 | < 50 | < 50 | 100 to 1000 | < 50 | < 50 | < 50 | N#Cc1cc(Nc2nc(NC3CCC(F)(F)C3)nc(-n3ccc(C(F)(F)F)n3)n2)ccn1 (stereo not drawn) [Compound 179]
20 | < 50 | < 50 | < 50 | 100 to 1000 | 50 to 100 | < 50 | CC[C@H](Nc1nc(N[C@@H](CC)C(F)(F)F)nc(-c2cccc(Cl)n2)n1)C(F)(F)F [Compound 180]
21 | 100 to 1000 | < 50 | 50 to 100 | < 50 | < 50 | < 50 | FC1(F)CCC(Nc2nc(NC3CCC(F)(F)CC3)nc(-c3nc(C(F)(F)F)cs3)n2)CC1 [Compound 183]
22 | 100 to 1000 | < 50 | 100 to 1000 | < 50 | < 50 | < 50 | FC(F)c1cncc(-c2nc(NC3CCC(F)(F)CC3)nc(NC3CCC(F)(F)CC3)n2)n1 [Compound 186]
23 | 100 to 1000 | < 50 | 50 to 100 | 50 to 100 | 50 to 100 | < 50 | FC1(F)CCC(Nc2nc(NC3CCC(F)(F)C3)nc(-c3ccnc(C(F)(F)F)n3)n2)C1 (stereo not drawn) [Compound 194]
24 | 50 to 100 | < 50 | 100 to 1000 | < 50 | < 50 | < 50 | Fc1cc(F)cc(Nc2nc(NC3CC(F)(F)C3)nc(-c3nc(F)ccc3F)n2)c1 [Compound 195]
25 | < 50 | < 50 | 50 to 100 | 100 to 1000 | 50 to 100 | < 50 | CC[C@H](Nc1nc(N[C@H](CC)C(F)(F)F)nc(-c2cccc(Cl)n2)n1)C(F)(F)F [Compound 196]
26 | 100 to 1000 | < 50 | 100 to 1000 | < 50 | < 50 | < 50 | FC1(F)CC(Nc2nc(Nc3ccnc(C(F)(F)F)c3)nc(-n3ccc(C(F)(F)F)n3)n2)C1 [Compound 197]
27 | 50 to 100 | < 50 | > 1000 | < 50 | < 50 | < 50 | FC(F)(F)c1cc(Nc2nc(NCC3CC3)nc(-c3cccc(Cl)n3)n2)ccn1 [Compound 200]
28 | 50 to 100 | < 50 | 50 to 100 | < 50 | < 50 | < 50 | CC(Nc1nc(Nc2ccnc(C3(C#N)CC3)c2)nc(-n2ccc(C(F)(F)F)n2)n1)C(F)(F)F (stereo not drawn) [Compound 201]
29 | 100 to 1000 | < 50 | 100 to 1000 | < 50 | < 50 | < 50 | FC1(F)CCC(Nc2nc(Nc3ccnc(-c4ccccc4)c3)nc(-c3cccc(C(F)(F)F)n3)n2)C1 (stereo not drawn) [Compound 202]
